The results in this text go back to patent publication US20250353845A1, “THYROID HORMONE BETA RECEPTOR AGONIST, CRYSTAL FORM, PREPARATION METHOD AND USE” (KPC PHARMACEUTICALS, INC, priority 2022, published 2025).

Structures are written as SMILES. Where two headings read alike, the source gives them in different places.

Data set [1] is described as follows: Pharmacokinetic evaluation in rats (liver-blood ratio). Type of data set: in vivo, CD rats. On the procedure: To determine the pharmacokinetic parameters of the compound represented by formula (I) in rats.
The animals were given the compound at a dose of 5 mg/kg at a concentration of 0.5 mg/mL. Animals were cross-collected for plasma samples at 2, 6 and 10 h after administration. The drug concentration in the plasma samples was determined by LC-MS/MS method, and the kinetic parameters of the test drugs obtained were found in Table 25: […]

Data set [2] concerns the target T1, thyroid receptor β (THRβ) (Homo sapiens, UniProt P10828).
T1 construct: expressed in transfected cells; host or cells: HEK293T
T1 sequence (P10828 217-461 limits assumed): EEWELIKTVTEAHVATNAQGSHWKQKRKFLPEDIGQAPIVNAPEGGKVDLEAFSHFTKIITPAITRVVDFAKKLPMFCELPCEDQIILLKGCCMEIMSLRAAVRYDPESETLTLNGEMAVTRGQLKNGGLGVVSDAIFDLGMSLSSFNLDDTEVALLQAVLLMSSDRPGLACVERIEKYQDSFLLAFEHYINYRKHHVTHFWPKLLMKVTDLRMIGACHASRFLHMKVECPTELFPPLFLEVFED
Nature of the data set: Cytological activity test of thyroid receptor β (luciferase reporter gene in HEK293T cells). The format is cell-based. To be noted: read-out: EC50 of THR β in vitro cell activity. From the text: In this study, the fluorescence reporter gene experiment method was used to evaluate the excitatory effects of the two compounds to be tested on THR β target.
PGL4.35 [luc2P/9XGAL4UAS/Hygro] contains nine GALA-UAS repeat sequences (upstream activation sequences). This sequence drives the transcription of luciferase reporter gene luc2P, in response to the binding of the fusion protein containing Gal4 DNA binding domain with the ligand binding domain of thyroid receptor β (THR β) in pBIND THRβ vector. Stimulation on THRβ by the test sample will lead to the increase of luminescence signal.
The positive compound was dissolved in DMSO to prepare a 5 mM stock solution, and then diluted to a 0.5 mM stock solution. All compounds were dissolved in DMSO and stored in a refrigerator at −20° C. […]
2) HEK293T cells were cultured according to ATCC standard, and the cells were tested in exponential growth period. […] The cells were collected and counted. […]
5) The Britelite plus detection reagent was placed at room temperature. […] Envision was used to detect the luminescence value.
6) Agonism percentage is calculated as follows:
[formula] • RLU: Resulting Luminescence • RLUpositive control: average value of luminescence of all positive control holes in the whole plate. • RLUnegative control: average value of luminescence of all negative control holes in the whole plate. […]
For orientation: In a reporter assay the amount or activity of a reporter protein is the signal.

For data set [3], the target named is thyroid hormone receptor β (THR β) (Homo sapiens, UniProt P10828). Nature of the data set: In vitro enzyme activity test of thyroid receptor β (TR-FRET, binding of THRβ LBD with co-activating peptide SRC2-2). The format is biochemical. How it is done:
Time-resolved fluorescence resonance energy transfer (TR-FRET) experimental method was used to evaluate the agonist activity in vitro of the compounds to be tested through the binding of thyroid hormone receptor β (THR β) with its co-activating peptide SRC2-2.
GST tag was fused to THR β ligand binding domain (THR β LBD), and its co-activating peptide SRC2-2 was biotinylated. The binding capacity of THR β LBD to SRC2-2 was determined by detecting the tightly bound Europium-labeled anti-GST antibody and Streptavidin labeled with D2 with TR-FRET.
1) the compounds to be tested were dissolved in DMSO to prepare a 30 mM stock solution that could be stored in a dryer at room temperature for three months. If it is stored for a long time, it will be placed in a refrigerator at −20° C.
The activity rate is calculated as follows: […]
Ratio valuepositive control: average value of the ratios of all positive control holes in the whole plate.
Ratio valuenegative control: average value of the ratios of all negative control holes in the whole plate.
The EC50 (half excited concentration) of the compound was obtained by using the following nonlinear fitting formula.
X: log value of compound concentration; Y: activity rate of compound.
(Time-resolved FRET reads energy transfer from a long-lived donor to a nearby acceptor.)

A short description of data set [4]: Solid stability test of crystalline form A. The format is physicochemical. To be noted: open, 10 days. From the text: […] Samples in duplicate were placed under each condition, and the samples for XRPD detection and melting points were placed separately. Samples placed under different conditions were sampled for XRPD detection at the planned test end point, and the test results were compared with the initial test results at Day 0.

A short description of data set [5]: Hygroscopicity of crystalline form A by dynamic vapor sorption (DVS). Type of data set: physicochemical. To be noted: 25° C. and 80% RH. On the procedure: Instrument model: TA Instruments Q5000 SA dynamic moisture adsorption instrument.
Test conditions: 1 mg to 10 mg sample was weighed and placed in a DVS sample tray for testing.
The detailed DVS parameters were as follows: temperature: 25° C., balance: dm/dt=0.01%/min for 15.00 min, drying: 90 min at 0% RH, RH (%) test gradient: 10% RH (%), test gradient range: 0%-80%-0%.
The hygroscopicity evaluation is classified as follows:
Experimental material: TA Instruments Q5000 SA dynamic moisture adsorption instrument
Experimental method: 1 mg to 10 mg of sample was weighted and placed in a DVS sample tray for testing.

Chain of thyroid hormone receptor β (THR β) (P19793 whole entry partner, other chains not shown, the tested form may be a part): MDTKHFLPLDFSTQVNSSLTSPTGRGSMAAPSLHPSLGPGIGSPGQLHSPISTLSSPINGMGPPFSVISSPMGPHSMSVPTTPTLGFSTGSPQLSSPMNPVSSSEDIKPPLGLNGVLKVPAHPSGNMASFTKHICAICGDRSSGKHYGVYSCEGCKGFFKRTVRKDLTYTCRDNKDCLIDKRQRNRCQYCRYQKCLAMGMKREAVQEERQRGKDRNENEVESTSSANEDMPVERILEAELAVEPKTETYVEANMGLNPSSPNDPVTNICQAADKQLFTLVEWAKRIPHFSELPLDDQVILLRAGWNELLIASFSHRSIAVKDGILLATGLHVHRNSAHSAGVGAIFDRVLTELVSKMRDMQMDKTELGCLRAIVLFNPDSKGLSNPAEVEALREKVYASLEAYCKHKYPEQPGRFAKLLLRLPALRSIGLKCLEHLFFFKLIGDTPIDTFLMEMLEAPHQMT

For the molecule `C[C@@H]1CCc2c(Oc3c(Cl)cc(-n4nc(C#N)c(=O)[nH]c4=O)cc3Cl)ccc(=O)n21` [Compound represented by formula (I)], the Kp at 2 h in data set [1] (male, CD, liver/plasma, rat, PO, 5.0 mg/kg, 2 h, read-out: L/P concentration ratio) was determined as 7.7. Further, the Kp at 6 h in data set [1] (male, CD, liver/plasma, rat, PO, 5.0 mg/kg, 6 h, read-out: L/P concentration ratio) worked out at 22.1. The Kp at 10 h in data set [1] (male, CD, liver/plasma, rat, PO, 5.0 mg/kg, 10 h, read-out: L/P concentration ratio) stood at 23.6. The concentration at 2 h in data set [1] (male, CD, liver, rat, PO, 5.0 mg/kg, 2 h, read-out: Liver drug concentration L) is 1180 ng/g; in data set [1] (male, CD, plasma, rat, PO, 5.0 mg/kg, 2 h, read-out: Blood drug concentration P), 153 ng/mL. The concentration at 6 h was 746 ng/g in data set [1] (male, CD, liver, rat, PO, 5.0 mg/kg, 6 h, read-out: Liver drug concentration L) and 33.8 ng/mL in data set [1] (male, CD, plasma, rat, PO, 5.0 mg/kg, 6 h, read-out: Blood drug concentration P). For the same molecule, the concentration at 10 h in data set [1] (male, CD, liver, rat, PO, 5.0 mg/kg, 10 h, read-out: Liver drug concentration L) stood at 238 ng/g; in data set [1] (male, CD, plasma, rat, PO, 5.0 mg/kg, 10 h, read-out: Blood drug concentration P), 10.1 ng/mL. The half-life in data set [1] (male, CD, plasma, rat, PO, 5.0 mg/kg, read-out: T½ (converted)) is 3.7 h. The “liver targeting (conclusion)” value in data set [1] (rat, PO, 5.0 mg/kg) is “Conclusion: The blood drug concentration of the compound represented by formula (I) in rats was relatively low, and the liver drug concentration was relatively high, so the compound represented by formula (I) has good liver targeting”. Also, the blood drug concentration result in data set [1] (rats) is listed as “low”. The liver drug concentration entry in data set [1] (rats) is given as “relatively high”. Also, the liver targeting result in data set [1] (rats) is on record as “good liver targeting properties”. Besides, the EC50 in data set [2] stood at 214 nM; in data set [3], 46 nM.

Turning to `C[C@@H]1CCc2c(Oc3c(Cl)cc(-n4nc(C#N)c(=O)[nH]c4=O)cc3Cl)ccc(=O)n21` [crystalline form A], the “Crystalline form (XRPD) after storage” value in data set [4] (25° C./65% RH), in data set [4] (25° C./85% RH), in data set [4] (40° C./75% RH) and in data set [4] (50° C.) was “Crystalline form A” each time. Besides, the hygroscopicity classification entry in data set [5] is “slight hygroscopicity”. Further, the “hygroscopic weight gain ΔW” value in data set [5] (DVS) is listed as 0.6%.

Broadly, the EC50 is the concentration giving half of the maximal effect.
